From ChEMBL document CHEMBL4813948, “Cytotoxic and Anti-Inflammatory Sesquiterpenes from the Whole Plants of Centipeda minima” (J Nat Prod, 2021)

Experiments:
HCT-116 = experiment: Cytotoxicity against human HCT-116 cells assessed as reduction in cell viability incubated for 48 hrs by MTT assay; format: functional, cell-based; conditions: HCT-116, 48 h
RAW264.7 [1] = experiment: Anti-inflammatory activity in mouse RAW264.7 cells assessed as inhibition of LPS-induced NO production incubated for 24 hrs by Griess reagent based assay; format: functional, cell-based; conditions: RAW264.7, 24 h
HepG2 = experiment: Cytotoxicity against human HepG2 cells assessed as reduction in cell viability incubated for 48 hrs by MTT assay; format: functional, cell-based; conditions: HepG2, 48 h
HeLa = experiment: Cytotoxicity against human HeLa cells assessed as reduction in cell viability incubated for 48 hrs by MTT assay; format: functional, cell-based
RAW264.7 [2] = experiment: Cytotoxicity against mouse RAW264.7 cells after 24 hrs by MTT assay; format: cell-based; conditions: raw264.7, 24 h

IC50 (RAW264.7 [1])	Compound	IC50 (HCT-116)	IC50 (HepG2)	IC50 (HeLa)	Activity (RAW264.7 [2])
3.9 µM	C=C(C)C(=O)O[C@@H]1C[C@H](OC(=O)C(C)C)[C@H]2[C@H](C)C[C@@H]3OC(=O)C(=C)[C@H]3C[C@@]21C	> 10 µM	> 10 µM	> 10 µM	–
–	C=C1C(=O)O[C@@H]2C[C@@H](C)[C@@H]3C(OC(=O)/C(C)=C\C)=C[C@@]4(C)O[C@@]34C[C@H]12	> 10 µM	> 10 µM	> 10 µM	–
–	CC(C)=CC(=O)O[C@H]1[C@@H]2[C@H](C)C(=O)O[C@@H]2C[C@@H](C)[C@@H]2CCC(=O)[C@]21C	> 10 µM	> 10 µM	> 10 µM	–
–	C=C1C(=O)O[C@@H]2C[C@@H](C)[C@@H]3C=CC(=O)[C@@]3(C)[C@@H](OC(=O)/C(C)=C\C)[C@H]12	2.9 µM	1.1 µM	0.8 µM	–
> 10 µM	C/C=C(/C)C(=O)O[C@H]1[C@@H]2[C@H](C)C(=O)O[C@@H]2C[C@@H](C)[C@@H]2[C@@H](OCC)CC(=O)[C@]21C	> 10 µM	> 10 µM	> 10 µM	–
–	C=C1C(=O)O[C@@H]2C[C@@H](C)[C@@H]3C=CC(=O)[C@@]3(C)[C@@H](OC(=O)C(C)C)[C@H]12 [HELENALINISOBUTYRATE]	0.4 µM	1.8 µM	1.4 µM	–
–	C=C1C(=O)O[C@@H]2C[C@@H](C)[C@@H]3[C@@H](OC)CC(=O)[C@@]3(C)[C@@H](OC(=O)/C(C)=C\C)[C@H]12	> 10 µM	> 10 µM	> 10 µM	–
2.4 µM	CCC(C)C(=O)O[C@H]1[C@@H]2[C@H](C)C(=O)O[C@@H]2C[C@@H](C)[C@@H]2C=CC(=O)[C@]21C (stereo not given in full)	7.3 µM	> 10 µM	2.4 µM	–
–	C=C1C(=O)O[C@H]2C[C@@H](C)[C@@H]3[C@@H](OC(=O)C(C)C)C[C@@H](OC(=O)C=C(C)C)[C@@]3(C)C[C@H]12	8.1 µM	6.5 µM	> 10 µM	–
–	C=C1C(=O)O[C@H]2C[C@@H](C)[C@@H]3[C@@H](OC(=O)/C(C)=C/C)C[C@@H](OC(=O)/C(C)=C\C)[C@@]3(C)C[C@H]12	6.6 µM	4.1 µM	7.8 µM	–
–	C/C=C(/C)C(=O)O[C@H]1[C@@H]2[C@H](C)C(=O)O[C@@H]2C[C@@H](C)[C@@H]2C=CC(=O)[C@]21C [BREVILIN A]	> 10 µM	> 10 µM	9.2 µM	Toxic
0.1 µM	C=C1C(=O)O[C@H]2C[C@@H](C)[C@@H]3[C@@H](OC(=O)CC(C)C)C[C@@H](OC(=O)CC(C)C)[C@@]3(C)C[C@H]12	9.9 µM	> 10 µM	> 10 µM	–
> 10 µM	C/C=C(/C)C(=O)O[C@H]1[C@@H]2[C@H](C)C(=O)O[C@@H]2C[C@@H](C)[C@@H]2[C@H](OC)CC(=O)[C@]21C	> 10 µM	> 10 µM	> 10 µM	–
0.2 µM	C=C1C(=O)O[C@H]2C[C@@H](C)[C@@H]3[C@@H](OC(=O)C(C)C)C[C@@H](OC(=O)CC(C)C)[C@@]3(C)C[C@H]12	> 10 µM	> 10 µM	> 10 µM	–
1.7 µM	CC(C)CC(=O)O[C@H]1[C@@H]2[C@H](C)C(=O)O[C@@H]2C[C@@H](C)[C@@H]2C=CC(=O)[C@]21C	7.2 µM	> 10 µM	5.5 µM	–
> 10 µM	C/C=C(/C)C(=O)O[C@H]1[C@@H]2[C@H](C)C(=O)O[C@@H]2C[C@@H](C)[C@@H]2CCC(=O)[C@]21C	> 10 µM	> 10 µM	> 10 µM	–
–	C=C1C(=O)O[C@H]2C[C@@H](C)[C@@H]3[C@@H](OC(=O)C(C)C)C[C@@H](OC(=O)C(C)C)[C@@]3(C)C[C@H]12	> 10 µM	6.5 µM	> 10 µM	–
–	CC(C)=CC(=O)O[C@H]1[C@@H]2[C@H](C)C(=O)O[C@@H]2C[C@@H](C)C2=CCC(=O)[C@]21C	> 10 µM	> 10 µM	> 10 µM	–
–	C=C1C(=O)O[C@@H]2C[C@@H](C)[C@@H]3C=CC(=O)[C@@]3(C)[C@@H](OC(=O)C=C(C)C)[C@H]12	0.8 µM	1.5 µM	2.6 µM	–
–	C=C1C(=O)O[C@H]2C[C@@H](C)[C@@H]3[C@@H](OC(=O)C(C)C)C[C@@H](OC(=O)/C(C)=C/C)[C@@]3(C)C[C@H]12	> 10 µM	8.7 µM	> 10 µM	–
> 10 µM	C=C1C(=O)O[C@H]2C[C@@H](C)[C@@H]3[C@@H](OC(=O)/C(C)=C\C)C[C@@H](OC(=O)CC(C)C)[C@@]3(C)C[C@H]12	5.2 µM	2.9 µM	9.4 µM	–
–	C=C(C)C(=O)O[C@H]1[C@@H]2[C@H](C)C(=O)O[C@@H]2C[C@@H](C)[C@@H]2CCC(=O)[C@]21C	> 10 µM	> 10 µM	> 10 µM	–
–	C=C(C)C(=O)O[C@@H]1[C@@H]2[C@H](C[C@H](C)C3=CCC(=O)[C@@]31C)OC(=O)[C@@H]2C	> 10 µM	> 10 µM	> 10 µM	–
–	C=C1C(=O)O[C@H]2C[C@@H](C)[C@@H]3[C@@H](OC(=O)C=C(C)C)C[C@@H](OC(=O)/C(C)=C\C)[C@@]3(C)C[C@H]12	9.4 µM	3.5 µM	> 10 µM	–

Compound	IC50 (RAW264.7 [1])	IC50 (HCT-116)	IC50 (HepG2)	IC50 (HeLa)	Activity (RAW264.7 [2])
C/C=C(\C)C(=O)O[C@H]1[C@@H]2[C@H](C)C(=O)O[C@@H]2C[C@@H](C)[C@@H]2C=CC(=O)[C@]21C	> 10 µM	> 10 µM	> 10 µM	> 10 µM	–
C=C1C(=O)O[C@@H]2C[C@@H](C)[C@@H]3C=CC(=O)[C@@]3(C)[C@@H](OC(=O)CC(C)C)[C@H]12	0.2 µM	3.3 µM	2.6 µM	2 µM	–
